The target of series [1] is T1, A1-adenosine receptors (Rattus norvegicus, UniProt P25099).
T1 construct: adenosine receptors in rat cerebral cortex membranes was assayed as described; from tissue; b141 says rat striatum
T1 sequence (P25099 1-326): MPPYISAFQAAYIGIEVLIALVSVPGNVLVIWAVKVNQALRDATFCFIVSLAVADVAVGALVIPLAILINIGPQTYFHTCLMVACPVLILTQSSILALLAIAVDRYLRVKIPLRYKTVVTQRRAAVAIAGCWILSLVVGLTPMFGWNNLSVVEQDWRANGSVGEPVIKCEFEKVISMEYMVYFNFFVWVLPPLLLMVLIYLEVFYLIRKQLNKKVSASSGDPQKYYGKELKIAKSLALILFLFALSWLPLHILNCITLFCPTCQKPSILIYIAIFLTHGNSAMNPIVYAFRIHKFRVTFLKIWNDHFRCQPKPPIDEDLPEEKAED
The experiment in a line: Competitive binding assay at A1 receptors ([3H]RPIA). The following applies: for Ki: [3H]RPIA, rat brain membranes, read-out: Ki at central rat receptors, A1; for A2/A1 ratio: ratio of Ki values A2/A1. The protocol:
Table 4 also indicates the synthesis method used for each compound therein.
(§1) A1 ligand = [^3 H]RPIA, A2 ligand = [^3 H]CGS21680
(§2) Inhibition of binding by a range of concentrations of an adenosine derivative was assessed in triplicate in at least three separate experiments. At least seven different concentrations spanning three orders of magnitude, adjusted appropriate for the IC50 of each compound were used. IC50 values Ci/mmol) or [^3 H]CGS21680. Inhibition of [^3 H]NECA binding of to A2 -adenosine receptors in rat striatal membranes were measured as described, except that 5 mM theophylline was used to define non-specific binding. N^6 -Cyclopentyladenosine was present at 50 nM to inhibit binding of the ligand at A1 -adenosine receptors. IC50 values were converted to Ki -values as described.

The next series addresses T2, A2-adenosine receptors (Rattus norvegicus, UniProt P30543).
T2 construct: adenosine receptors in rat striatal membranes were measured as described; from tissue; host or cells: rat striatal membranes
The experiment in a line: Competitive binding assay at A2 receptors ([3H]CGS21680). The following applies: [3H]CGS21680, rat striatum; read-out: Ki at central rat receptors, A2. The protocol: The Ki values (in nM) for A1 and A2 binding in rat striatum are presented in Table 4 with the relative selectivities expressed as the ratio of Ki values. […] Table 4 also indicates the synthesis method used for each compound therein.
as §1, §2

Series [2] in a line: Solubility of analogs in pH 7.2 phosphate buffer. It is filed as physicochemical. To be noted: aqueous buffer; pH 7.2 phosphate buffer with DMSO, 2-3 h room temperature, absorbance at 310 nm, mean of 3. The method, then:
The method for determining the solubilities of the xanthines is detailed in the Experimental Section below.
Solubility of Analogs. To 675 uL of pH 7.2 phosphate buffer was added 25 uL of a DMSO solution (approx. 10 mM) of the xanthine to be assayed. This was stirred for one minutes by a vortex mixer then left at room temperature for 2-3 hours. In each case (except where noted) a fine precipitate resulted which was collected by centrifugation at the end of the waiting period. After the dissolution period, a 100 uL aliquot of the supernatant was added to 1.0 mL of methanol and the absorbance measured at 310 nm using an extinction coefficient of 28,180 for calculating the concentration. Each xanthine was assayed 3 times and the concentration represent the averages of these 3 determinations.

A further series deals with rat brain A1-receptors. To be noted: prior work; cited from earlier work.
Series [3] deals with T1, A1-adenosine receptors. It is filed as binding. The following applies: 0.75 h; for inhibition at 0.02 µM: 20 nM. The protocol: The degree of irreversible binding was determined as previously described and the percent inhibition of selected compounds is presented in Table 5.
Irreversible Binding to Rat Brain. For studies of irreversible incorporation, membranes were prepared as described above and then incubated with the indicated (Tables I and II) concentration of ligand for 45 minutes at 37° C. […] Membranes were then suspended in Buffer A containing 10^-4 M 3-isobutyl-1-methylxanthine (IBMX) and incubated at 25° C. for 18 hours with shaking. Membranes were then washed twice with Buffer A, treated with adenosine deaminase as described above, and used in radioligand binding studies as described above.
The long treatment with IBMX was found necessary to remove all of the non-incorporated ligands from membranes. Multiple washes (up to 8) with buffer alone were insufficient to remove all the reversibly bound ligands.

Structures are written as SMILES. ≈ marks a conversion by molar mass, not a printed value.

T2 sequence (P30543 whole entry): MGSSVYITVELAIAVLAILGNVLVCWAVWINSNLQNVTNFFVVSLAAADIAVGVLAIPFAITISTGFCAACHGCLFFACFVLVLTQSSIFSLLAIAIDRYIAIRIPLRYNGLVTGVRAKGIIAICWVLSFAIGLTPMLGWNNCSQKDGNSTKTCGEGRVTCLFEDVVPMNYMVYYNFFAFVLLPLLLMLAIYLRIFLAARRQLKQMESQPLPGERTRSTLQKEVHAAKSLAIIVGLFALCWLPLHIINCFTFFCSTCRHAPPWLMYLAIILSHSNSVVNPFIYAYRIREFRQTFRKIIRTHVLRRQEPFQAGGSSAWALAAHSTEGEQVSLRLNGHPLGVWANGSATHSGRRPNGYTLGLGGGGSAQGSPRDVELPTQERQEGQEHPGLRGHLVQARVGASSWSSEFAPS

Consider `CCCn1c(=O)c2[nH]c(-c3ccc(OCC(=O)NCCNC(=S)Nc4cc(N=C=S)cc(NC(=S)NCC(=O)OC(C)(C)C)c4)cc3)nc2n(CCC)c1=O`, for which, at A1-adenosine receptors [1], the Ki stood at 8.3 ± 2.2 nM and the A2/A1 ratio was 397. The Ki on A2-adenosine receptors was found to be 3290 nM.
For the molecule `CCCn1c(=O)c2[nH]c(-c3ccc(OCC(=O)NCCNC(=S)Nc4cc(N=C=S)cc(C(=O)NCCNC(C)=O)c4)cc3)nc2n(CCC)c1=O` [Compound 16, 1,3-Dipropyl-8-(4-(((((2-((((3-(2-acetylaminoethylcarboxamide)-5-isothiocyanatophenyl)amino)thiocarbonyl)amino)ethyl)amino)carbonyl)methyl)oxy)phenyl)xanthine], the Ki was determined as 7.01 ± 0.52 nM at A1-adenosine receptors [1] and 247 ± 36 nM at A2-adenosine receptors. Besides, on A1-adenosine receptors [1], the A2/A1 ratio is 35. This molecule returned a solubility in series [2] of more than 1000 µM.
As for `CCCn1c(=O)c2[nH]c(-c3ccc(OCC(=O)NCCNC(=S)Nc4ccc(N=C=S)cc4)cc3)nc2n(CCC)c1=O` [p-DITC-XAC (2b)], the inhibitory constant (Ki) at rat brain A1-receptors was 6.6 nM.
Turning to `CCCn1c(=O)c2[nH]c(-c3ccc(OCC(=O)NCCNC(=S)Nc4cc(N=C=S)cc(C(=O)OC(=O)c5cc(N=C=S)cc(N=C=S)c5)c4)cc3)nc2n(CCC)c1=O`, at A1-adenosine receptors [1], the Ki worked out at 45 ± 3.5 nM and the A2/A1 ratio is on record as 11. For the same molecule, the inhibitory constant (Ki) at A2-adenosine receptors is 493 ± 200 nM.
As to `CCCn1c(=O)c2[nH]c(-c3ccc(OCC(=O)NCCNC(=S)Nc4cc(N=C=S)cc(C(=O)NCCNC(=O)CCCC[C@@H]5SC[C@@H]6NC(=O)N[C@@H]65)c4)cc3)nc2n(CCC)c1=O` [R' = CONH(CH2)2 NHCO-biotin], the inhibitory constant (Ki) on A1-adenosine receptors [1] is 20.1 ± 3.3 nM; at A2-adenosine receptors, 11500 nM. The A2/A1 ratio on A1-adenosine receptors [1] is recorded as 572.
Consider `CCCn1c(=O)c2[nH]c(-c3ccc(OCC(=O)NCCNC(=S)Nc4cc(N=C=S)cc(NC(=S)NCCNC(C)=O)c4)cc3)nc2n(CCC)c1=O` [Compound 25], for which, at A1-adenosine receptors [1], the Ki worked out at 57.6 ± 15.7 nM and the A2/A1 ratio turned out to be 44. For the same molecule, on A2-adenosine receptors, the Ki came out at 2540 ± 283 nM. Moreover, in series [2], the solubility was more than 100 µM.
With `CCCn1c(=O)c2[nH]c(-c3ccc(OCC(=O)NCCNC(=S)Nc4cc(N=C=S)cc(C(=O)OCC)c4)cc3)nc2n(CCC)c1=O` [Compound 11, 1,3-Dipropyl-8-(4-(((((2-((((3-carbethoxy-5-isothiocyanatophenyl)amino)thiocarbonyl)amino)ethyl)amino)carbonyl)methyl)oxyl)phenyl)xanthine], at A1-adenosine receptors [1], the inhibition constant Ki was found to be 41.6 ± 8.2 nM and the A2/A1 ratio was determined as 19. For the same molecule, the inhibitory constant (Ki) at A2-adenosine receptors amounted to 815 ± 145 nM. The same molecule had a solubility in series [2] of 9.33 ± 0.43 µM (≈ 6.46 µg/mL).
Regarding `CCCn1c(=O)c2[nH]c(-c3ccc(OCC(=O)NCCNC(=S)Nc4cc(N=C=S)cc(C(=O)NCCNC(=O)CCc5ccc(O)cc5)c4)cc3)nc2n(CCC)c1=O` [Compound 17], the inhibition constant (Ki) was 7.08 ± 1.91 nM at A1-adenosine receptors [1] and 1400 nM on A2-adenosine receptors. The A2/A1 ratio at A1-adenosine receptors [1] was determined as 198.
`CCCn1c(=O)c2[nH]c(-c3ccc(OCC(=O)NCCNC(=S)Nc4cc(CO)cc(N=C=S)c4)cc3)nc2n(CCC)c1=O` [Compound 9, 1,3-Dipropyl-8-(4-(((((2-((((3-hydroxymethyl-5-isothiocyanatophenyl)amino)thiocarbonyl)amino)ethyl)amino)carbonyl)methyl)oxyl)phenyl)xanthine]: at A1-adenosine receptors [1], the Ki was determined as 13.4 ± 2.64 nM and the A2/A1 ratio stood at 32. In addition, the inhibition constant (Ki) on A2-adenosine receptors worked out at 433 ± 45 nM. Besides, in series [2], the solubility was 10.8 ± 0.03 µM (≈ 7.03 µg/mL).
In the case of `CCCn1c(=O)c2[nH]c(-c3ccc(OCC(=O)NCCNC(=S)Nc4cc(N=C=S)cc(N=C=S)c4)cc3)nc2n(CCC)c1=O` [Compound 23, 1,3-Dipropyl-8-(4-(((((2-((((3,5-diisothiocyanatophenyl)amino)thiocarbonyl)amino)ethyl)amino)carbonyl)methyl)oxy)phenyl)-xanthine], at A1-adenosine receptors [1], the Ki came out at 3.96 ± 0.59 nM and the A2/A1 ratio was 894. The Ki on A2-adenosine receptors was 3540 ± 936 nM.
The matching figures for `CCCn1c(=O)c2[nH]c(-c3ccc(OCC(=O)NCCNC(=S)Nc4cc(N=C=S)cc(NC(=S)NCCNC(=O)c5ccc(N=[N+]=[N-])cc5O)c4)cc3)nc2n(CCC)c1=O`: 25.2 nM, 14 and 341 nM.
For the molecule `CCCn1c(=O)c2[nH]c(-c3ccc(OCC(=O)NCCNC(=S)Nc4cccc(N=C=S)n4)cc3)nc2n(CCC)c1=O` [Compound 8, 1,3-Dipropyl-8-(4-(((((2-((((6-isothiocyanatopyrido)amino)thiocarbonyl)amino)ethyl)amino)carbonyl)methyl)oxy)phenyl)xanthine], at A1-adenosine receptors [1], the Ki was 16.2 ± 1.96 nM and the A2/A1 ratio is reported as 27. Besides, on A2-adenosine receptors, the Ki is 432 ± 20 nM. For the same molecule, in series [2], the solubility turned out to be 17.5 ± 0.06 µM (≈ 10.9 µg/mL).
Turning to `CCCn1c(=O)c2[nH]c(-c3ccc(OCC(=O)NCCNC(=S)Nc4cc(N=C=S)cc(C(=O)NCCN(C)C)c4)cc3)nc2n(CCC)c1=O` [Compound 14, 1,3-Dipropyl-8-(4-(((((2-((((3-(2-dimethylaminoethylcarboxamide)-5-isothiocyanatophenyl)amino)thiocarbonyl)amino)ethyl)amino)carbonyl)methyl)oxy)phenyl)xanthine], on A1-adenosine receptors [1], the Ki was determined as 7.62 ± 2.19 nM and the A2/A1 ratio stood at 65. The inhibition at 0.02 µM at A1-adenosine receptors [3] stood at 30 ± 8.7%. The same molecule displayed an inhibition at 0.05 µM against A1-adenosine receptors [3] (50 nM) of 46.3 ± 21.8%. The inhibition constant (Ki) at A2-adenosine receptors was 497 ± 74 nM. This molecule displayed a solubility in series [2] of 28.7 ± 0.03 µM (≈ 21.1 µg/mL).
`CCCn1c(=O)c2[nH]c(-c3ccc(OCC(=O)NCCNC(=S)Nc4cc(N=C=S)cc(C(=O)NCCNC(=O)CBr)c4)cc3)nc2n(CCC)c1=O` [R' = CONH(CH2)2 NHCOCH2 Br]: on A1-adenosine receptors [1], the Ki came out at 15.8 nM and the A2/A1 ratio amounted to 44. On A2-adenosine receptors, the Ki worked out at 688 nM.
Turning to `CCCn1c(=O)c2[nH]c(-c3ccc(OCC(=O)NCCNC(=S)Nc4cc(N=C=S)cc(NC(=S)NCCN(C)C)c4)cc3)nc2n(CCC)c1=O` [Compound 24], at A1-adenosine receptors [1], the inhibition constant Ki was 77.2 ± 2.5 nM and the A2/A1 ratio worked out at 25. In addition, the inhibitory constant (Ki) at A2-adenosine receptors came out at 1910 ± 303 nM.
For `CCCn1c(=O)c2[nH]c(-c3ccc(OCC(=O)NCCNC(=S)Nc4cc(N=C=S)cc(C(=O)NCCNc5ccc([N+](=O)[O-])c6nonc56)c4)cc3)nc2n(CCC)c1=O` [R' = CONH(CH2)2 NH-NBD], at A1-adenosine receptors [1], the inhibition constant (Ki) came out at 18.1 nM and the A2/A1 ratio stood at 73. In addition, on A2-adenosine receptors, the Ki was 1330 nM.
Turning to `CCCn1c(=O)c2[nH]c(-c3ccc(OCC(=O)NCCNC(=S)Nc4cc(N=C=S)cc(NC(=S)NCCNc5ccc(N=[N+]=[N-])cc5[N+](=O)[O-])c4)cc3)nc2n(CCC)c1=O`, at A1-adenosine receptors [1], the Ki was determined as 27.3 ± 7.2 nM and the A2/A1 ratio is reported as 31. The Ki on A2-adenosine receptors was 842 nM.
For the molecule `CCCn1c(=O)c2[nH]c(-c3ccc(OCC(=O)NCCNC(=S)Nc4cc(N=C=S)cc(NC(=S)NCCNC(=S)Nc5ccc(C(=O)O)c(-c6c7ccc(=O)cc-7oc7cc(O)ccc67)c5)c4)cc3)nc2n(CCC)c1=O` [R' = NHCSNH(CH2)2 NHCSNH-fluorescein], on A1-adenosine receptors [1], the inhibition constant (Ki) was determined as 234 ± 32.5 nM and the A2/A1 ratio came to 8. Besides, the Ki at A2-adenosine receptors was determined as 1790 nM.
Regarding `CCCn1c(=O)c2[nH]c(-c3ccc(OCC(=O)NCCNC(=S)Nc4cc(N=C=S)cc(C(N)=O)c4)cc3)nc2n(CCC)c1=O` [Compound 13, 1,3-Dipropyl-8-(4-(((((2-((((3-carboxamide-5-isothiocyanatophenyl)amino)thiocarbonyl)amino)ethyl)amino)carbonyl)methyl)oxy)phenyl)xanthine], on A1-adenosine receptors [1], the Ki is 9.47 ± 2.99 nM and the A2/A1 ratio is recorded as 39. This molecule also came in with an inhibition at 0.005 µM on A1-adenosine receptors [3] (5 nM) of 68 ± 7.5%. In addition, at 0.02 µM the inhibition on A1-adenosine receptors [3] was 90.3 ± 7%. Besides, on A2-adenosine receptors, the Ki is 365 ± 35 nM. For the same molecule, the solubility in series [2] amounted to 31.4 ± 0.39 µM (≈ 20.8 µg/mL).

The Ki is a dissociation constant, usually derived from enzyme kinetics or from competition with a known ligand. Broadly, the solubility is the dissolved amount per volume that the medium holds. A higher solubility goes with much dissolved substance. Broadly, the inhibition is the share of the control response that was lost under treatment. Read a low inhibition as a weak effect.

Values taken from patent US5310916A, “Trifunctional agents useful as irreversible inhibitors of A1-adenosine receptors” (The United States of America as represented by the …, priority 1990, dated 1994).
